Laboratory results taken from US11162123B2, “Glutamine synthetase reaction and method for quantifying ammonia utilizing the same” (ARKRAY, Inc., priority 2017, dated 2021).
Read-outs that look alike come from different tables or passages of the source.

Columns and labels:
[1] = tested on: glutamine synthetase
Method: (§1) Reagent A was mixed with a sample immediately before the reaction, and then reagent B was added to the resulting mixture to perform the reaction. The ammonia concentration was measured based on the increase in the absorbance at 340 nm during the period of 300 seconds after the beginning of the reaction. To the sample, calcium was added at various concentrations (180, 340, 530, or 700 ppm). The liquid volumes of the reagents were as follows: reagent A, 140 μL; reagent B, 35 μL; sample, 10 μL.
Subsequently, in what step calcium affects the ammonia measurement reaction was investigated. […] Since ADP is a substrate of ADP-dependent hexokinase, the effect of calcium in the sample on the reactions of enzymes excluding glutamine synthetase can be investigated. Similarly, each of G6P and NADH was added as a sample to the reaction system to investigate the reaction using G6P or NADH as a substrate.

[2] = tested on: glutamine synthetase; remark: listed apart in the source
Method: After mixing the components, a base material was impregnated therewith. After drying the base material, a test liquid (10,000 N-μg/dL aqueous ammonia solution supplemented with 0, 10, 30, 60, or 80 ppm calcium) was added thereto, followed by allowing the reaction to proceed at room temperature for 300 seconds and then measuring the reflectance (ΔR). By calculating the difference (ΔR) between the reflectance R of the sample to which calcium was not added and the reflectance R of each sample to which calcium was added, the effect of calcium in the ammonia measurement system can be investigated.

[3] = target: Glutamine synthetase (GST) (Homo sapiens, UniProt P15104); conditions: known from the art; cited from earlier work
[4] = tested on: enzymes excluding glutamine synthetase; assay: liquid reaction system with ADP, G6P or NADH added as sample (enzymes excluding glutamine synthetase); assay type: biochemical
Method: as §1
Since ADP is a substrate of ADP-dependent hexokinase, the effect of calcium in the sample on the reactions of enzymes excluding glutamine synthetase can be investigated. Similarly, each of G6P and NADH was added as a sample to the reaction system to investigate the reaction using G6P or NADH as a substrate.

Glutamine synthetase (GST), sequence (P15104 whole entry, species assumed): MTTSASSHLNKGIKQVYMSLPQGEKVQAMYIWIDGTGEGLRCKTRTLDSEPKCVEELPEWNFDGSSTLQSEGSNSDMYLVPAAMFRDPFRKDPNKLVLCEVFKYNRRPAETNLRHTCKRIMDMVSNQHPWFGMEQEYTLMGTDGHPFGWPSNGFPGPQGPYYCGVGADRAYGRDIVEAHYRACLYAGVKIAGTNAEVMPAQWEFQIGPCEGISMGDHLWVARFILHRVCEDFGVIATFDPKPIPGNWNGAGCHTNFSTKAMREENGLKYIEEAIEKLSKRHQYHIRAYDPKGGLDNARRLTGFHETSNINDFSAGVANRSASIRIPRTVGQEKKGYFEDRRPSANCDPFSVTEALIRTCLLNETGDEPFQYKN

In the case of `O=C(O)CN(CCN(CC(=O)O)CC(=O)O)CC(=O)O` [EDTA, ethylenediaminetetraacetic acid, reference compound], the “measured value of ammonia versus calcium concentration” value ([1]; addition of EDTA (2.00 mM in reagent A), calcium 180-700 ppm in sample) is reported as “does not change dependently on the calcium concentration” and the “change in reflectance (change in ΔR) caused by calcium” value ([2]; addition of 5, 10 or 20 mM EDTA) is reported as “improved the change in the reflectance”.

In the case of `CS(=N)(=O)CC[C@H](N)C(=O)O` (stereo partly drawn) [L-methionine sulfoximine], the “inhibition of glutamine synthetase” value [3] is given as “inhibited”.

In the case of `[Ca+2]` [calcium], the “effect of calcium on measured value, ADP added as sample” value ([4]; ADP as sample, with and without EDTA) is reported as “disappearance of the effect of calcium”, the “effect of calcium on measured value, G6P or NADH added as sample” value ([4]; G6P or NADH as sample) is reported as “no effect of calcium was found” and the “step of the ammonia measurement reaction affected by calcium” value ([1]; conclusion from substrate-addition experiments) is reported as “affects glutamine synthetase in the first step”. For the same molecule, the “measured value of ammonia versus calcium concentration” value ([1]; no addition of EDTA, calcium 180, 340, 530 or 700 ppm in sample, absorbance 340 nm, 300 seconds) was “decreases dependently on the calcium concentration” and the “measured value (reflectance, ΔR) versus calcium concentration” value ([2]; no EDTA, test liquid with 0, 10, 30, 60 or 80 ppm calcium, room temperature, 300 seconds) was “changed dependently on the calcium concentration”.

In the case of `CP(=O)(O)CC[C@H](N)C(=O)O` [phosphinothricin], the “inhibition of glutamine synthetase” value [3] is listed as “inhibited”.
